Where “and” joins values, the source holds several entries; their conditions need not be identical. Equal entries are not always repeated. Where two headings read alike, the source gives them in different places.
Columns and labels:
CCR1 = biological target: T1, CCR1 (Homo sapiens, UniProt P32246); test: β-arrestin selectivity assay, CCR1; format: cell-based
T1 sequence (P32246 1-355): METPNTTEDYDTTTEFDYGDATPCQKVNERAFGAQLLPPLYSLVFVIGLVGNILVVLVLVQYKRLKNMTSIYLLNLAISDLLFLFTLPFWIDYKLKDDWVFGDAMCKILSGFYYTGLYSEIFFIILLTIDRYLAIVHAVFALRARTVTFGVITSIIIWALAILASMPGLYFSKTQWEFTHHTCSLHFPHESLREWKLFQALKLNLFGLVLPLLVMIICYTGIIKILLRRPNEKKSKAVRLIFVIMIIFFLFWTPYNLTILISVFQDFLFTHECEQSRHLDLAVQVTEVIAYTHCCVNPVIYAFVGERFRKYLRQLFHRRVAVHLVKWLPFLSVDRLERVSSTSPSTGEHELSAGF

CCR3 = biological target: T2, CCR3 (Homo sapiens, UniProt P51677); test: β-arrestin selectivity assay, CCR3; format: cell-based
T2 sequence (P51677 1-355): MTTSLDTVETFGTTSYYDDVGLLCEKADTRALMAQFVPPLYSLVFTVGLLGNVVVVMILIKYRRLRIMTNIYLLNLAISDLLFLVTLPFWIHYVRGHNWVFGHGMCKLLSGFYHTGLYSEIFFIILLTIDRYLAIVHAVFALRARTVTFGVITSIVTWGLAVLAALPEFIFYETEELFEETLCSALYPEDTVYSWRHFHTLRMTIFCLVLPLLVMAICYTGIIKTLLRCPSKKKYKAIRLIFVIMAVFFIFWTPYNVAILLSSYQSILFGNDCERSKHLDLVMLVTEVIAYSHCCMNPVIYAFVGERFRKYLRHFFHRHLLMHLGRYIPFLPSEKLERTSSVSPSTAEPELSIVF

CCR7 [1] = biological target: T3, CCR7 (Homo sapiens, UniProt P32248); test: Ca^2+ mobilization assay, CCR7; format: cell-based; conditions: Ca^2+ mobilization assay, CCR7
T3 construct: expressed in transfected cells
T3 sequence (P32248 25-378): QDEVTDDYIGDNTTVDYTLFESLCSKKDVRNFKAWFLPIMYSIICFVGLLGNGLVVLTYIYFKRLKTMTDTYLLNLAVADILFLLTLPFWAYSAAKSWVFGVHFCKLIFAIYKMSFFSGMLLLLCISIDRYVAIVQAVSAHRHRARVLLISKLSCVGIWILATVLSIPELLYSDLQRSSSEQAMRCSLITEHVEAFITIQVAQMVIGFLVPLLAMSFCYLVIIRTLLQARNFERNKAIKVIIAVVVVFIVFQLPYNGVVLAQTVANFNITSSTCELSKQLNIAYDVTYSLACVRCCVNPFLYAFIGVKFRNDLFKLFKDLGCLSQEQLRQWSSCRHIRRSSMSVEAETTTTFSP
Experimental: Selected compounds were initially sent for both antagonist and agonist TANGO β-arrestin assays. […] Replacement only on the amide group with CN led to strong activity decrease in β-arrestin assay: only 31% activity at about 30 μM and similar one at 100 μM (Table 1). Five more derivatives with replaced amide group were also tested in parallel by Ca^2+ mobilization assay and they all were not active up to the tested concertation of 100 μM.
To examine the colloid aggregation possibility a β-lactamase enzymatic activity counterscreen assay was performed, which is the commonly adopted tool for detection of such properties of the compounds.

CCR5 = CCR5 (Homo sapiens, UniProt P51681); test: β-arrestin selectivity assay, CCR5; format: cell-based
CXCR4 = CXCR4 (Homo sapiens, UniProt P61073); test: Ca^2+ mobilization assay, CXCR4; format: cell-based
Experimental: MIC5023. The synthesis path of MIC5023 is shown on Scheme 1. It consists of 5 chemical transformation in order the final product to be obtained. Two chlorine atoms were added to aromatic rings of MIC5022, and also one methyl group, which makes MIC5023 a close derivative of MIC5022. […] The Ca^2+ mobilization assays retrieved a value of IC50 of about 30 μM and similar for CXCR4; i.e. less than those observed for Hit 1 (MIC5022). MIC5024. The synthesis path of MIC5024 is shown on Scheme 2. It consists of 4 chemical transformation in order the final product to be obtained. The difference between MIC5023 and MIC5024 is only one methyl group introduced in the central five member aromatic ring but it decreased the β-arrestin activity of MIC5024 to CCR1, CCR2 and CCR3 below 30 μM. […] The Ca^2+ mobilization assays retrieved values of IC50>50 μM for CCR7 and CXCR4. Thus, it became evident that this methyl substitution is less sensitive only to CCR3 and CCR5.

CCR2 = CCR2 (Homo sapiens, UniProt P41597); test: β-arrestin selectivity assay, CCR2; format: cell-based
CCR7 [2] = biological target: T3, CCR7; conditions: β-arrestin related assay, CCR7, reference [2]; cited from earlier work

Sequence of CCR2 (P41597 whole entry): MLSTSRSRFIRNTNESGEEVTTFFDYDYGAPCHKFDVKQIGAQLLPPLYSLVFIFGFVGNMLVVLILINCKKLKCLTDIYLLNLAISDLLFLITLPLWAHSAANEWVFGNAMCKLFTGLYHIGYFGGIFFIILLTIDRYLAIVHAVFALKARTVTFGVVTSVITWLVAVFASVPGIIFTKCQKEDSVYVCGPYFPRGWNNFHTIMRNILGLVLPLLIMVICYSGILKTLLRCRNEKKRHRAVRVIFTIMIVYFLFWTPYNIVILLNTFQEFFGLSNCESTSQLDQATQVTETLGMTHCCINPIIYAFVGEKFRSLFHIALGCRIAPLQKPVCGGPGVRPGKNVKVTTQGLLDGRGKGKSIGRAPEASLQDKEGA
Sequence of CXCR4 (P61073 whole entry): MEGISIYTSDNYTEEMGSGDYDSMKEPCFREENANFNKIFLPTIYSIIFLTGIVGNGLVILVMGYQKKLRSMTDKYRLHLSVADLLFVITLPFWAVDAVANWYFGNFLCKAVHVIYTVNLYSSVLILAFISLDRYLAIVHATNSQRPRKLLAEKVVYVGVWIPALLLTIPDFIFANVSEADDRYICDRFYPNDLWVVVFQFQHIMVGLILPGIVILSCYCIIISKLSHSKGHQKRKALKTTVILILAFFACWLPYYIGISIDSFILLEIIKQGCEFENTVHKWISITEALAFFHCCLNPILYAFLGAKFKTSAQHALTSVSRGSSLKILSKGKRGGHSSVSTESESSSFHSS
Sequence of CCR5 (P51681 whole entry): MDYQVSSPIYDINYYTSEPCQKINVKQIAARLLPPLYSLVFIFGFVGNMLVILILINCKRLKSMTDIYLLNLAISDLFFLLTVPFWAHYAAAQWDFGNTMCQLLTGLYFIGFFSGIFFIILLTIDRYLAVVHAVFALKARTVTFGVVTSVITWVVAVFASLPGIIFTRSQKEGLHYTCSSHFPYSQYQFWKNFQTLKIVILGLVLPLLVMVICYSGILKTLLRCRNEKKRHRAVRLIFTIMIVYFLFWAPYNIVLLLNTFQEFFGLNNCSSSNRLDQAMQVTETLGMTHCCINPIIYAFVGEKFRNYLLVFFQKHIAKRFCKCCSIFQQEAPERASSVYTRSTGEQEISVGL

Molecule	IC50 (CCR1) [µM]	IC50 (CCR3)	IC50 (CCR7 [1]) [µM]	IC50 (CCR5) [µM]	IC50 (CXCR4) [µM]	IC50 (CCR2) [µM]	IC50 (CCR7 [2]) [µM]
Cc1nc(Oc2c(Cl)cccc2C(N)=O)c2c(C)c(-c3ccccc3Cl)sc2n1 [MIC5023, 3-chloro-2-{[6-(2-chlorophenyl)-2,5-dimethylthieno[2,3-d]pyrimidin-4-yl]oxy}benzamide]	> 30	> 9.5 µM	~30	2.1	~30	31.5	–
Cc1nc(Oc2c(Cl)cccc2C(N)=O)c2cc(-c3ccccc3Cl)sc2n1 [MIC5024, 3-chloro-2-{[6-(2-chlorophenyl)-2-methylthieno[2,3-d]pyrimidin-4-yl]oxy}benzamide]	< 30	< 30 µM and 7.2 µM	> 50	7.2	> 50	< 30	–
Cosaline	–	–	–	–	–	–	0.2
